Source: US20160319277A1, “METHODS OF IMPROVED PROTEIN PRODUCTION USING MIRNAs AND SIRNAs” (THE JOHNS HOPKINS UNIVERSITY, priority 2015, published 2016)
Like-named read-outs stand apart in the source and are kept apart here.

Test system: HEK-CMV-Luc2-Hygro cells
Assay: High-throughput genome-wide siRNA screen and validation screen for luciferase expression
Assay type: cell-based, human
Details: for per_cell / VIA: Table 3; for per_cell: per cell luciferase yield relative to negative control; for VIA: viable cell density as % of negative control
Method: The Silencer Select™ Human genome siRNA library (Ambion), which targets 21,585 human genes with 3 siRNAs per gene, was used for screening. Each siRNA is arrayed in an individual well (Corning 3570, 384 well, white, solid bottom plates). The transfection was done in duplicates: 0.8 pmol of each siRNA was spotted to a well of a 384-well plate (Corning) and 20 μL of serum-free DMEM containing 0.07 μL of Lipofectamine™ RNAiMax (Life Technologies) was then added to each well. This lipid-siRNA mixture was incubated at ambient temperature for 30 min prior to addition of 4000 cells in 20 μL of DMEM containing 20% FBS (Gibco). After incubating the transfected cells at 37° C. in 5% CO2 for 72 hours, 20 μL of ONE-Glo™ Reagent (Promega) was added to one set of replicates for ‘overall luciferase yield’ quantification and 20 μL of CellTiter-Glo™ Reagent (Promega) was added to the second set of replicates for ‘viable cell density’ measurement. All plates were incubated at room temperature for 20 minutes to stabilize the luminescent signal and the signal was then measured with PerkinElmer Envision 2104 Multilabel™ plate reader.
The 56 genes which got targeted by at least two independent siRNAs (out of three) resulting in enhanced luciferase production with MAD-based z-score>3 from the primary screen were subjected to validation screen using 3 additional Silencer™ siRNAs (Ambion) with different sequences from those used in the primary screen. […] The transfection and assay processes were-the same as the primary genome-wide screen. Data visualization was performed in R computational environment (available on the World Wide Web at R-project.org/) by using ‘hexbin’ and ‘ggplot2’ packages.
The screen generated end-point data for ‘overall luciferase yield’ and ‘viable cell density’ in each well. For each plate, the median value of the negative control wells was set as 100% and was used to normalize corresponding sample wells. The ‘overall luciferase yield’ and ‘viable cell density’ were exported as % of negative control and the median absolute deviation (MAD)-based z-score was calculated for each sample.

[1] = Table 4, primary screen, 72 h, negative control = 100%

Row | Substance | per_cell (primary screen, 72 h) | VIA (primary screen, 72 h) | Viable cell density (%) [1] | per cell luciferase yield (%) [1] | Viable cell density (%)
1 | 83 (GCGGAAAAGGUAUCCCUCATT; chemistry not given here; listed as Homo sapiens) [compound 83] | 184.6 | 80.17 |  |  | 
2 | 84 (GGCUGUACAUAGUCCUUUUTT; chemistry not given here; listed as Homo sapiens) [compound 84] | 238.5 | 66.39 |  |  | 
3 | 85 (CUGCCGCAACAAUAAGAAATT; chemistry not given here; listed as Homo sapiens) [compound 85] | 171.2 | 82.95 |  |  | 
4 | 86 (CAUUGGUUUUGAUGAGUAUTT; chemistry not given here; listed as Homo sapiens) [compound 86] | 226.7 | 64.38 |  |  | 
5 | 87 (GGUGUAAUAAUGUCCUUUATT; chemistry not given here; listed as Homo sapiens) [compound 87] | 188.1 | 79.39 |  |  | 
6 | 88 (GAGCAGAGAUCAUAACCAATT; chemistry not given here; listed as Homo sapiens) [compound 88] | 141.1 | 108.2 |  |  | 
7 | 89 (GGAUCACGCAGCUCAAGAUTT; chemistry not given here; listed as Homo sapiens) [compound 89] | 161.6 | 91.54 |  |  | 
8 | 90 (GGUGCUCUCGGUUGCACAATT; chemistry not given here; listed as Homo sapiens) [compound 90] | 187.4 | 82.33 |  |  | 
9 | 91 (CAGCAAACCUUUGACCAGATT; chemistry not given here; listed as Homo sapiens) [compound 91] | 277.5 | 55.4 |  |  | 
10 | 92 (CCAGUUCGACCUGAACAAATT; chemistry not given here; listed as Homo sapiens) [compound 92] | 176 | 85.75 |  |  | 
11 | 93 (CAGCCUCACCAAGCACAAATT; chemistry not given here; listed as Homo sapiens) [compound 93] | 167.4 | 85.87 |  |  | 
12 | 94 (AGAGGCUACUUUGAAAACATT; chemistry not given here; listed as Homo sapiens) [compound 94] |  |  | 66.938% | 227.583% | 
13 | 95 (CAAGUCACCUGUUACCUCATT; chemistry not given here; listed as Homo sapiens) [compound 95] |  |  | 88.955% | 171.805% | 
14 | 96 (ACACUCUUGUGGUCAAGAATT; chemistry not given here; listed as Homo sapiens) [compound 96] |  |  | 73.809% | 227.741% | 
15 | 97 (GAUGAAGAAUGAUAAGUCATT; chemistry not given here; listed as Homo sapiens) [compound 97] |  |  | 96.599% | 184.201% | 
16 | 98 (CAACGGGACUAUUAUGAUATT; chemistry not given here; listed as Homo sapiens) [compound 98] |  |  | 97.392% | 163.496% | 
17 | 99 (CCCGGAUACUUCUGAAGAATT; chemistry not given here; listed as Homo sapiens) [compound 99] |  |  | 75.879% | 227.884% | 
18 | 100 (GAACGAGUACAGCAAUAUATT; chemistry not given here; listed as Homo sapiens) [compound 100] |  |  | 108.214% | 140.868% | 
19 | 101 (GUUCAUCCAUAAGUACAUUTT; chemistry not given here; listed as Homo sapiens) [compound 101] |  |  | 83.129% | 238.606% | 
20 | 102 (AGAUCUUUGUCAAGGUGUATT; chemistry not given here; listed as Homo sapiens) [compound 102] |  |  | 96.256% | 153.438% | 
21 | 103 (GACAUUGGAUCAUACUAAATT; chemistry not given here; listed as Homo sapiens) [compound 103] |  |  | 88.908% | 185.522% | 

Row | Substance | per_cell (primary screen, 72 h) | VIA (primary screen, 72 h) | Viable cell density (%) [1] | per cell luciferase yield (%) [1] | Viable cell density (%)
22 | 104 (GGCGAAUGCUCCUGACUAATT; chemistry not given here; listed as Homo sapiens) [compound 104] |  |  | 103.888% | 156.977% | 
23 | 105 (GCGCAAGCUUAAGAACUUUTT; chemistry not given here; listed as Homo sapiens) [compound 105] |  |  | 94.579% | 170.349% | 
24 | 106 (GCUCAUCGACAUCAAAGUUTT; chemistry not given here; listed as Homo sapiens) [compound 106] |  |  | 97.007% | 170.088% | 
25 | 107 (CCAUAUAUCCGAAUGACCATT; chemistry not given here; listed as Homo sapiens) [compound 107] |  |  | 63.879% | 256.443% | 
26 | 108 (CGGAAUCAAUGAUCCUGUATT; chemistry not given here; listed as Homo sapiens) [compound 108] |  |  | 71.395% | 212.652% | 
27 | 109 (GCAUCGAGGAGACUAACAATT; chemistry not given here; listed as Homo sapiens) [compound 109] |  |  | 51.696% | 275.068% | 
28 | 110 (CAAUGAUUCUUACCCUCAATT; chemistry not given here; listed as Homo sapiens) [compound 110] |  |  | 77.169% | 257.929% | 
29 | 111 (CAACCUUAUUAUCAUUGAATT; chemistry not given here; listed as Homo sapiens) [compound 111] |  |  | 49.133% | 300.611% | 
30 | 112 (GUUUCAUCUGGGUUCGCUATT; chemistry not given here; listed as Homo sapiens) [compound 112] |  |  | 62.659% | 233.649% | 
31 | 113 (GCAUCAGCUCACAACAAAATT; chemistry not given here; listed as Homo sapiens) [compound 113] |  |  | 35.915% | 409.361% | 
32 | 114 (GUCCUAUCACCGUAUCUUATT; chemistry not given here; listed as Homo sapiens) [compound 114] |  |  | 55.962% | 266.627% | 
33 | 115 (AGAUACUGGUAUUGCUCGATT; chemistry not given here; listed as Homo sapiens) [compound 115] |  |  | 54.559% | 388.072% | 
34 | 116 (UGGUCUCAAUGACAGUAGATT; chemistry not given here; listed as Homo sapiens) [compound 116] |  |  | 53.645% | 370.824% | 
35 | 117 (GGCUGUACAUAGUCCUUUUTT; chemistry not given here; listed as Homo sapiens) [compound 117] |  |  |  | 238.463% | 66.394%
36 | 118 (UGUGGACUGAGGUACCCAATT; chemistry not given here; listed as Homo sapiens) [compound 118] |  |  | 58.901% | 247.842% | 
37 | 119 (CUGCCGCAACAAUAAGAAATT; chemistry not given here; listed as Homo sapiens) [compound 119] |  |  | 82.950% | 171.198% | 
38 | 120 (GGAUCAUGCUAAAAGGAGATT; chemistry not given here; listed as Homo sapiens) [compound 120] |  |  | 54.945% | 311.516% | 
39 | 121 (CAUUGGUUUUGAUGAGUAUTT; chemistry not given here; listed as Homo sapiens) [compound 121] |  |  |  | 226.659% | 64.385%
40 | 122 (AGGGCUAUCUGGUAUCUGUTT; chemistry not given here; listed as Homo sapiens) [compound 122] |  |  |  | 283.281% | 54.854%
41 | 123 (GGUGUAAUAAUGUCCUUUATT; chemistry not given here; listed as Homo sapiens) [compound 123] |  |  | 79.386% | 188.094% | 
